pEC50, pIC50: −log10 of the molar value.
Columns and labels:
[1] = system: Trypanosoma brucei rhodesiense; experiment: MMV: Inhibition of Trypanosoma brucei rhodesiense (STIB 900) (HAT in vitro).; type: functional, organism-based
[2] = MMV: Cytotoxicity against human fibroblasts (MRC-5) cells.; settings: MRC-5 cells (human fibroblasts)
Plasmodium falciparum [3] = experiment: MMV: Inhibition of Plasmodium falciparum K1 (EC50).; type: functional, organism-based
[4] = system: Trypanosoma brucei brucei; experiment: MMV: Inhibition of Trypanosoma brucei brucei (Squib 427) (HAT in vitro).; type: functional, organism-based
Plasmodium falciparum [5] = experiment: MMV: Inhibition of Plasmodium falciparum 3D7 (EC50).; type: functional, organism-based
Trypanosoma cruzi = experiment: MMV: Inhibition of Trypanosoma cruzi (Tulahuen C4 LacZ) (Chagas in vitro).; type: functional, organism-based
Leishmania infantum = experiment: MMV: Inhibition of Leishmania infantum (MHOM/MA/BE/67) in vitro.; type: functional, organism-based
Plasmodium falciparum [6] = experiment: MMV: Inhibition of Plasmodium falciparum 3D7 at 5uM compound concentration.; type: functional

SMILES: c1ccc(/C2=N/c3ccccc3/N=C(/c3ccccc3)c3ccccc32)cc1
- pIC50 [1]: 5.34
- pIC50 [2]: < 4.49
- pEC50 (Plasmodium falciparum [3]): 5.96
- pIC50 [4]: 4.78
- pEC50 (Plasmodium falciparum [5]): 6.18
- pIC50 (Trypanosoma cruzi): 4.58
- pIC50 (Leishmania infantum): 4.78
- inhibition at 5 µM (Plasmodium falciparum [6]): 99%

SMILES: CCc1c(C)c(=N)c2ccccc2n1C
- pIC50 [1]: < 4.49
- pIC50 [2]: 5.16
- pEC50 (Plasmodium falciparum [3]): 6.00
- pIC50 [4]: < 4.49
- pEC50 (Plasmodium falciparum [5]): 6.42
- pIC50 (Trypanosoma cruzi): 5.51
- pIC50 (Leishmania infantum): < 4.49
- inhibition at 5 µM (Plasmodium falciparum [6]): 76%

SMILES: CN(C)c1ccc(C=Cc2nc(=O)c3ccccc3o2)cc1
- pIC50 [1]: 5.51
- pIC50 [2]: < 4.49
- pEC50 (Plasmodium falciparum [3]): 7.57
- pIC50 [4]: < 4.49
- pEC50 (Plasmodium falciparum [5]): 7.29
- pIC50 (Trypanosoma cruzi): < 4.49
- pIC50 (Leishmania infantum): < 4.49
- inhibition at 5 µM (Plasmodium falciparum [6]): 96%

SMILES: Brc1ccc(Nc2nc3ccccc3nc2Nc2ccc(Br)cc2)cc1
- pIC50 [1]: 5.88
- pIC50 [2]: 5.23
- pEC50 (Plasmodium falciparum [3]): 6.30
- pIC50 [4]: 5.39
- pEC50 (Plasmodium falciparum [5]): 5.97
- pIC50 (Trypanosoma cruzi): 5.45
- pIC50 (Leishmania infantum): 5.39
- inhibition at 5 µM (Plasmodium falciparum [6]): 98%

SMILES: CCCN(CCC)CC(O)COc1ccccc1C(=O)Nc1ccccc1 (stereo unspecified)
- pIC50 [1]: < 4.49
- pIC50 [2]: < 4.49
- pEC50 (Plasmodium falciparum [3]): 7.24
- pIC50 [4]: < 4.49
- pEC50 (Plasmodium falciparum [5]): 6.71
- pIC50 (Trypanosoma cruzi): < 4.49
- pIC50 (Leishmania infantum): < 4.49
- inhibition at 5 µM (Plasmodium falciparum [6]): 98%

SMILES: Cc1ccc(CSCc2ccc(C(=O)NC3CC3)o2)cc1
- pIC50 [1]: < 4.49
- pIC50 [2]: < 4.49
- pEC50 (Plasmodium falciparum [3]): 5.95
- pIC50 [4]: < 4.49
- pEC50 (Plasmodium falciparum [5]): 6.20
- pIC50 (Trypanosoma cruzi): < 4.49
- pIC50 (Leishmania infantum): < 4.49
- inhibition at 5 µM (Plasmodium falciparum [6]): 97%

SMILES: Cc1cc(Nc2ccc(OCc3ccccc3)cc2)nc2cc(O)ccc12
- pIC50 [1]: 5.45
- pIC50 [2]: 4.85
- pEC50 (Plasmodium falciparum [3]): 6.28
- pIC50 [4]: 4.92
- pEC50 (Plasmodium falciparum [5]): 6.16
- pIC50 (Trypanosoma cruzi): 5.36
- pIC50 (Leishmania infantum): 4.79
- inhibition at 5 µM (Plasmodium falciparum [6]): 96%

SMILES: COc1cc(-c2nc(-c3ccc(Sc4ccccc4)cc3)c(-c3ccccc3)[nH]2)cc(OC)c1O
- pIC50 [1]: 5.44
- pIC50 [2]: 5.07
- pEC50 (Plasmodium falciparum [3]): 6.01
- pIC50 [4]: 5.47
- pEC50 (Plasmodium falciparum [5]): 6.46
- pIC50 (Trypanosoma cruzi): 4.95
- pIC50 (Leishmania infantum): 4.79
- inhibition at 5 µM (Plasmodium falciparum [6]): 97%

SMILES: Cc1ccc(-c2cc3nc4c(c(O)n3n2)CCCC4)cc1
- pIC50 [1]: 5.43
- pIC50 [2]: < 4.49
- pEC50 (Plasmodium falciparum [3]): 5.95
- pIC50 [4]: 4.81
- pEC50 (Plasmodium falciparum [5]): 6.40
- pIC50 (Trypanosoma cruzi): < 4.49
- pIC50 (Leishmania infantum): < 4.49
- inhibition at 5 µM (Plasmodium falciparum [6]): 73%

SMILES: Cc1ccccc1OCCSc1nc2ccc(NC(=O)c3cccs3)cc2s1
- pIC50 [1]: 5.56
- pIC50 [2]: < 4.49
- pEC50 (Plasmodium falciparum [3]): 5.98
- pIC50 [4]: 5.40
- pEC50 (Plasmodium falciparum [5]): 6.16
- pIC50 (Trypanosoma cruzi): 5.33
- pIC50 (Leishmania infantum): 4.76
- inhibition at 5 µM (Plasmodium falciparum [6]): 96%

SMILES: c1ccc2cc3c(Nc4ccc(N5CCOCC5)cc4)ccnc3cc2c1
- pIC50 [1]: 6.46
- pIC50 [2]: < 4.49
- pEC50 (Plasmodium falciparum [3]): 6.29
- pIC50 [4]: 6.48
- pEC50 (Plasmodium falciparum [5]): 6.60
- pIC50 (Trypanosoma cruzi): 5.89
- pIC50 (Leishmania infantum): < 4.49
- inhibition at 5 µM (Plasmodium falciparum [6]): 97%

SMILES: CC(C)CCNCC(O)Cn1c2ccccc2c2ccccc21 (stereo unspecified)
- pIC50 [1]: 6.00
- pIC50 [2]: 4.79
- pEC50 (Plasmodium falciparum [3]): 6.68
- pIC50 [4]: 6.03
- pEC50 (Plasmodium falciparum [5]): 6.33
- pIC50 (Trypanosoma cruzi): 5.17
- pIC50 (Leishmania infantum): 5.40
- inhibition at 5 µM (Plasmodium falciparum [6]): 97%

SMILES: Cc1cc(C)c2c(c1)OCN(Cc1ccccc1Cl)C2
- pIC50 [1]: 4.79
- pIC50 [2]: < 4.49
- pEC50 (Plasmodium falciparum [3]): 7.00
- pIC50 [4]: 4.78
- pEC50 (Plasmodium falciparum [5]): 6.57
- pIC50 (Trypanosoma cruzi): < 4.49
- pIC50 (Leishmania infantum): 4.79
- inhibition at 5 µM (Plasmodium falciparum [6]): 98%

SMILES: COc1cc(OC)c(N(C)C(=O)c2cc3c(s2)-c2ccccc2S(=O)(=O)C3)cc1Cl
- pIC50 [1]: 5.36
- pIC50 [2]: < 4.49
- pEC50 (Plasmodium falciparum [3]): 7.03
- pIC50 [4]: 4.79
- pEC50 (Plasmodium falciparum [5]): 7.11
- pIC50 (Trypanosoma cruzi): 4.80
- pIC50 (Leishmania infantum): 4.67
- inhibition at 5 µM (Plasmodium falciparum [6]): 100%

SMILES: c1ccc2c(NCCc3c[nH]c4ccccc34)c3ccccc3nc2c1
- pIC50 [1]: 6.07
- pIC50 [2]: 5.40
- pEC50 (Plasmodium falciparum [3]): 6.18
- pIC50 [4]: 5.98
- pEC50 (Plasmodium falciparum [5]): 6.52
- pIC50 (Trypanosoma cruzi): 5.72
- pIC50 (Leishmania infantum): 5.92
- inhibition at 5 µM (Plasmodium falciparum [6]): 97%

SMILES: Cc1cc(NC(=O)C2c3ccccc3C(=O)N(CC(C)C)C2c2cccs2)no1 (stereo unspecified)
- pIC50 [1]: 5.01
- pIC50 [2]: 4.52
- pEC50 (Plasmodium falciparum [3]): 7.41
- pIC50 [4]: < 4.49
- pEC50 (Plasmodium falciparum [5]): 7.48
- pIC50 (Trypanosoma cruzi): 4.82
- pIC50 (Leishmania infantum): < 4.49
- inhibition at 5 µM (Plasmodium falciparum [6]): 100%

SMILES: CCOC(=O)c1ccc2nc(-c3ccccc3)cc(O)c2c1
- pIC50 [1]: < 4.49
- pIC50 [2]: 5.12
- pEC50 (Plasmodium falciparum [3]): 6.22
- pIC50 [4]: < 4.49
- pEC50 (Plasmodium falciparum [5]): 6.93
- pIC50 (Trypanosoma cruzi): 5.82
- pIC50 (Leishmania infantum): 4.79
- inhibition at 5 µM (Plasmodium falciparum [6]): 96%

SMILES: COc1ccc(OC)c(C2C3=C(CC(C)(C)CC3=O)N(c3ccc(Cl)c(Cl)c3)C3=C2C(=O)CC(C)(C)C3)c1
- pIC50 [1]: 4.79
- pIC50 [2]: < 4.49
- pEC50 (Plasmodium falciparum [3]): 5.97
- pIC50 [4]: 4.78
- pEC50 (Plasmodium falciparum [5]): 6.04
- pIC50 (Trypanosoma cruzi): < 4.49
- pIC50 (Leishmania infantum): < 4.49
- inhibition at 5 µM (Plasmodium falciparum [6]): 90%

SMILES: Cc1cccc(N2C(=O)C3C(C2=O)C2(c4ccccc4)C(=O)C3(c3ccccc3)C(c3ccc4c(c3)OCO4)=C2c2ccc3c(c2)OCO3)c1 (stereo unspecified)
- pIC50 [1]: < 4.49
- pIC50 [2]: < 4.49
- pEC50 (Plasmodium falciparum [3]): 6.58
- pIC50 [4]: < 4.49
- pEC50 (Plasmodium falciparum [5]): 6.52
- pIC50 (Trypanosoma cruzi): < 4.49
- pIC50 (Leishmania infantum): < 4.49
- inhibition at 5 µM (Plasmodium falciparum [6]): 94%

SMILES: Cc1ccc(F)cc1NC(=O)c1cc(Cl)ccc1Nc1ccccc1
- pIC50 [1]: < 4.49
- pIC50 [2]: < 4.49
- pEC50 (Plasmodium falciparum [3]): 6.29
- pIC50 [4]: < 4.49
- pEC50 (Plasmodium falciparum [5]): 6.27
- pIC50 (Trypanosoma cruzi): < 4.49
- pIC50 (Leishmania infantum): < 4.49
- inhibition at 5 µM (Plasmodium falciparum [6]): 99%

SMILES: OC1=C2C(=Nc3ccccc3SC2c2ccc(Br)cc2)c2ccccc21 (stereo unspecified)
- pIC50 [1]: 5.57
- pIC50 [2]: < 4.49
- pEC50 (Plasmodium falciparum [3]): 6.02
- pIC50 [4]: 5.39
- pEC50 (Plasmodium falciparum [5]): 6.25
- pIC50 (Trypanosoma cruzi): 5.44
- pIC50 (Leishmania infantum): 5.36
- inhibition at 5 µM (Plasmodium falciparum [6]): 97%

SMILES: Clc1ccc2c(N3CCCC3)ccnc2c1
- pIC50 [1]: 4.84
- pIC50 [2]: < 4.49
- pEC50 (Plasmodium falciparum [3]): 5.89
- pIC50 [4]: 4.80
- pEC50 (Plasmodium falciparum [5]): 6.03
- pIC50 (Trypanosoma cruzi): < 4.49
- pIC50 (Leishmania infantum): < 4.49
- inhibition at 5 µM (Plasmodium falciparum [6]): 97%

SMILES: COc1cc2c3cc1Oc1c(OC)c(OC)cc4c1C(Cc1ccc(O)c(c1)Oc1ccc(cc1)CC3N(C)CC2)N(C)CC4 (stereo unspecified)
- pIC50 [1]: 5.34
- pIC50 [2]: 5.35
- pEC50 (Plasmodium falciparum [3]): 5.92
- pIC50 [4]: 4.84
- pEC50 (Plasmodium falciparum [5]): 5.90
- pIC50 (Trypanosoma cruzi): 5.44
- pIC50 (Leishmania infantum): 4.92
- inhibition at 5 µM (Plasmodium falciparum [6]): 96%

SMILES: Cc1ccc(N2C3c4ccccc4N(S(=O)(=O)c4ccc(C)cc4)C2c2ccccc2N3S(=O)(=O)c2ccc(C)cc2)cc1
- pIC50 [1]: 4.78
- pIC50 [2]: < 4.49
- pEC50 (Plasmodium falciparum [3]): 7.56
- pIC50 [4]: < 4.49
- pEC50 (Plasmodium falciparum [5]): 7.61
- pIC50 (Trypanosoma cruzi): < 4.49
- pIC50 (Leishmania infantum): 4.79
- inhibition at 5 µM (Plasmodium falciparum [6]): 97%

SMILES: CCOc1c(Br)cc(C2C(C(=O)OC)=CN(C)C=C2C(=O)OC)cc1OC
- pIC50 [1]: 4.51
- pIC50 [2]: < 4.49
- pEC50 (Plasmodium falciparum [3]): 5.97
- pIC50 [4]: < 4.49
- pEC50 (Plasmodium falciparum [5]): 6.29
- pIC50 (Trypanosoma cruzi): < 4.49
- pIC50 (Leishmania infantum): < 4.49
- inhibition at 5 µM (Plasmodium falciparum [6]): 96%

SMILES: COc1ccccc1N1C(=N)SC(=Cc2ccc(OCc3ccccc3F)cc2)C1=O
- pIC50 [1]: 5.39
- pIC50 [2]: < 4.49
- pEC50 (Plasmodium falciparum [3]): 6.08
- pIC50 [4]: 5.00
- pEC50 (Plasmodium falciparum [5]): 6.32
- pIC50 (Trypanosoma cruzi): 4.79
- pIC50 (Leishmania infantum): 4.60
- inhibition at 5 µM (Plasmodium falciparum [6]): 95%

SMILES: CCOC(=O)C1=CN(C)C=C(C(=O)OCC)C1c1cc(Br)c(OCC)c(OC)c1
- pIC50 [1]: 4.86
- pIC50 [2]: < 4.49
- pEC50 (Plasmodium falciparum [3]): 6.02
- pIC50 [4]: 4.81
- pEC50 (Plasmodium falciparum [5]): 6.29
- pIC50 (Trypanosoma cruzi): 4.87
- pIC50 (Leishmania infantum): < 4.49
- inhibition at 5 µM (Plasmodium falciparum [6]): 97%
